Test results taken from US10155756B2, “Pyrazolo[1,5-A]pyridine compounds and use thereof” (GUANGZHOU INSTITUTES OF BIOMEDICINE AND HEALTH, CHINESE …, priority 2014, dated 2018).
In brackets after ≈: the same amount, converted by molar mass.

System: self-luminescent tuberculosis
Assay: microbe, parasite or virus in culture
Format: cell-based
Conditions: Mycobacterium tuberculosis, 72 h; read-out: MIClux

Compound | MIC
CCc1nn2ccc(Cl)cc2c1C(=O)NCc1ccc(C(=O)OC)cc1 [TJ064814, 4-((5-chloro-2-ethylpyrazolo [1,5-a]pyridine-3-carboxamide)methyl) methyl benzoate] | 1 to 10 µg/mL (≈ 2.69 to 26.9 µM)
CCc1nn2ccc(Cl)cc2c1C(=O)Nc1ccc(N2CCC(c3ccc(OC(F)(F)F)cc3)CC2)cc1 [TJ064819, 5-chloro-2-ethyl-N-(4-(4-(4-(trifluoromethoxy)phenyl)piperidine-1-yl)phenyl) pyrazolo [1,5-a] pyridine-3-carboxamide] | > 10 µg/mL
Cc1nn2c(C)cccc2c1C(=O)NCc1ccc(N2CCC(c3ccc(OC(F)(F)F)cc3)CC2)cc1 [TJ064851, 2,7-dimethyl-N-(4-(4-(4-(trifluoromethoxy)phenyl)piperidine-1-yl)benzyl) pyrazolo[1,5-a] pyridine-3-carboxamide] | 1 to 10 µg/mL (≈ 1.91 to 19.1 µM)
Cc1ccc2c(C(=O)NCc3ccc(N4CCC(c5ccc(OC(F)(F)F)cc5)CC4)cc3)c(C)nn2c1 [TJ064854, 2,6-dimethyl-N-(4-(4-(4-(trifluoromethoxy)phenyl)piperidine-1-yl)benzyl) pyrazolo[1,5-a] pyridine-3-carboxamide] | < 1 µg/mL
Cc1nn2cccc(C)c2c1C(=O)NCc1ccc(N2CCC(c3ccc(OC(F)(F)F)cc3)CC2)cc1 [TJ064872, 2,4-dimethyl-N-(4-(4-(4-(trifluoromethoxy)phenyl)piperidine-1-yl)benzyl) pyrazolo[1,5-a] pyridine-3-carboxamide] | > 10 µg/mL
CCc1nn2ccc(OC)cc2c1C(=O)NCc1ccc(N2CCC(c3ccc(OC(F)(F)F)cc3)CC2)cc1 [TJ064889, 5-methoxy-2-ethyl-N-(4-(4-(4-(trifluoromethoxy)phenyl)piperidine-1-substituted)benzyl) pyrazolo[1,5-a] pyridine-3-carboxamide] | < 1 µg/mL
CCc1nn2ccc(Cl)cc2c1C(=O)NCc1cn(-c2ccc(OC(F)(F)F)cc2)nn1 [TJ064983] | > 10 µg/mL
CCc1nn2ccc(Cl)cc2c1C(=O)N(C)Cc1ccc(N2CCC(c3ccc(OC(F)(F)F)cc3)CC2)cc1 [TJ064985] | 1 to 10 µg/mL (≈ 1.75 to 17.5 µM)
CCc1nn2ccc(Cl)cc2c1C(=O)NC(C)(C)c1ccc(N2CCC(c3ccc(OC(F)(F)F)cc3)CC2)cc1 [TJ064987, 5-chloro-2-ethyl-N-(2-(4-(4-(4-(trifluoromethoxy)phenyl)piperidine-1-yl)phenyl)propane-2-substituted) pyrazolo [1,5-a] pyridine-3-carboxamide] | > 10 µg/mL
Cc1nn2ccc(C(F)(F)F)cc2c1C(=O)NCc1ccc(N2CCC(c3ccc(OC(F)(F)F)cc3)CC2)cc1 [TJ064995, 5-trifluoromethyl-2-methyl-N-(4-(4-(4-(trifluoromethoxy)phenyl)piperidine-1-yl)benzyl) pyrazolo [1,5-a] pyridine-3-carboxamide] | 1 to 10 µg/mL (≈ 1.73 to 17.3 µM)
O=C(NCc1ccc(N2CCC(c3ccc(OC(F)(F)F)cc3)CC2)cc1)c1cnn2ccc(Cl)cc12 [TJ170371, 5-chloro-N-(4-(4-(4-(trifluoromethoxy)phenyl)piperidine-1-yl)benzyl) pyrazolo [1,5-a] pyridine-3-carboxamide] | 1 to 10 µg/mL (≈ 1.89 to 18.9 µM)
O=C(NCc1ccc(N2CCC(c3ccc(OC(F)(F)F)cc3)CC2)cc1)c1c(-c2ccccc2)nn2ccc(Cl)cc12 [TJ170386, 5-chloro-2-phenyl-N-(4-(4-(4-(trifluoromethoxy)phenyl)piperidine-1-yl)benzyl) pyrazolo [1,5-a] pyridine-3-carboxamide] | > 10 µg/mL
Cc1ccn2nc(C)c(C(=O)NCc3cn(-c4ccc(OC(F)(F)F)cc4)nn3)c2c1 [TJ830003] | > 10 µg/mL
Cc1nn2ccc(Br)cc2c1C(=O)NCc1ccc(N2CCC(c3ccc(OC(F)(F)F)cc3)CC2)cc1 [TJ830008, 5-bromo-2-methyl-N-(4-(4-(4-(trifluoromethoxy)phenyl)piperidine-1-yl)benzyl) pyrazolo [1,5-a] pyridine-3-carboxamide] | < 1 µg/mL
Cc1nn2ccc(-c3ccccc3)cc2c1C(=O)NCc1ccc(N2CCC(c3ccc(OC(F)(F)F)cc3)CC2)cc1 [TJ830012, 5-phenyl-2-methyl-N-(4-(4-(4-(trifluoromethoxy)phenyl)piperidine-1-yl)benzyl) pyrazolo [1,5-a] pyridine-3-carboxamide] | > 10 µg/mL
Cc1ccn2nc(C)c(C(=O)NCc3ccc(-c4ccc(OC(F)(F)F)cc4)nc3)c2c1 [TJ830025, 2,5-dimethyl-N-((6-(4-(trifluoromethoxy)phenyl)pyridine-3-yl)methyl) pyrazolo [1,5-a] pyridine-3-carboxamide] | < 1 µg/mL
CCc1nn2ccc(Cl)cc2c1C(=O)NCc1ccc(-c2ccc(OC(F)(F)F)cc2)nc1 [TJ830028, 5-chloro-2-ethyl-N-((6-(4-(trifluoromethoxy)phenyl)pyridine-3-yl)methyl) pyrazolo [1,5-a] pyridine-3-carboxamide] | < 1 µg/mL
COc1ccn2nc(C)c(C(=O)NCc3ccc(N4CCC(c5ccc(OC(F)(F)F)cc5)CC4)cc3)c2c1 [TJ830047, 5-methoxy-2-methyl-N-(4-(4-(4-(trifluoromethoxy)phenyl)piperidine-1-yl)benzyl) pyrazolo [1,5-a] pyridine-3-carboxamide] | < 1 µg/mL
Cc1nn2ccccc2c1C(=O)NCc1ccc(C(F)(F)F)cc1 [TJ830069] | 1 to 10 µg/mL (≈ 3 to 30 µM)

Compound | MIC
CCc1nn2ccc(Cl)cc2c1C(=O)NC(C)c1ccc(N2CCC(c3ccc(OC(F)(F)F)cc3)CC2)cc1 (stereo not shown) [TJ830070, 5-chloro-2-ethyl-N-(1-(4-(4-(4-(trifluoromethoxy)phenyl)piperidine-1-yl)phenyl)ethanol) pyrazolo [1,5-a] pyridine-3-carboxamide] | > 10 µg/mL
Cc1ccn2nc(C)c(C(=O)NCc3ccc(C(F)(F)F)cc3)c2c1 [TJ830072] | < 1 µg/mL
Cc1nn2ccc(C(C)C)cc2c1C(=O)NCc1ccc(N2CCC(c3ccc(OC(F)(F)F)cc3)CC2)cc1 [TJ830073, 5-isopropyl-2-methyl-N-(4-(4-(4-(trifluoromethoxy)phenyl)piperidine-1-yl)benzyl) pyrazolo [1,5-a] pyridine-3-carboxamide] | 1 to 10 µg/mL (≈ 1.82 to 18.2 µM)
Cc1nn2ccc(C(C)(C)C)cc2c1C(=O)NCc1ccc(N2CCC(c3ccc(OC(F)(F)F)cc3)CC2)cc1 [TJ830075, 5-tert-Butyl-2-methyl-N-(4-(4-(4-(trifluoromethoxy)phenyl)piperidine-1-substituted)benzyl) pyrazolo [1,5-a] pyridine-3-carboxamide] | > 10 µg/mL
CCc1ccn2nc(C)c(C(=O)NCc3ccc(N4CCC(c5ccc(OC(F)(F)F)cc5)CC4)cc3)c2c1 [TJ830082, 5-ethyl-2-methyl-N-(4-(4-(4-(trifluoromethoxy)phenyl)piperidine-1-substituted)benzyl) pyrazolo [1,5-a] pyridine-3-carboxamide] | < 1 µg/mL
CCc1nn2ccc(C)cc2c1C(=O)NCc1ccc(N2CCC(c3ccc(OC(F)(F)F)cc3)CC2)cc1 [TJ830102, 5-methyl-2-ethyl-N-(4-(4-(4-(trifluoromethoxy)phenyl)piperidine-1-substituted)benzyl) pyrazolo [1,5-a] pyridine-3-carboxamide] | < 1 µg/mL
CCOc1ccn2nc(C)c(C(=O)NCc3ccc(N4CCC(c5ccc(OC(F)(F)F)cc5)CC4)cc3)c2c1 [TJ830108, 5-methyl-2-ethoxy-N-(4-(4-(4-(trifluoromethoxy)phenyl)piperidine-1-substituted)benzyl) pyrazolo [1,5-a] pyridine-3-carboxamide] | < 1 µg/mL
CCc1nn2ccc(Cl)cc2c1C(=O)NCCc1ccc(N2CCC(c3ccc(OC(F)(F)F)cc3)CC2)cc1 [TJ830128, 5-chloro-2-ethyl-N-(4-(4-(4-(trifluoromethoxy)phenyl)piperidine-1-yl)phenethyl) pyrazolo [1,5-a] pyridine-3-carboxamide] | 1 to 10 µg/mL (≈ 1.75 to 17.5 µM)
Cc1ccn2nc(C)c(C(=O)NCc3ccc(-c4ccc(OC(F)(F)F)cc4)s3)c2c1 [TJ830132, 2,5-dimethyl-N-((5-(4-(trifluoromethoxy)phenyl)thiophene-2-yl)methyl) pyrazolo [1,5-a] pyridine-3-carboxamide] | < 1 µg/mL
Cc1ccn2nc(C)c(C(=O)NCc3ccc(-c4ccc(OC(F)(F)F)cc4)cn3)c2c1 [TJ830133, 2,5-dimethyl-N-((5-(4-(trifluoromethoxy)phenyl)pyridine-2-yl)methyl) pyrazolo [1,5-a] pyridine-3-carboxamide] | < 1 µg/mL
CCCc1nn2ccc(Cl)cc2c1C(=O)NCc1ccc(N2CCC(c3ccc(OC(F)(F)F)cc3)CC2)cc1 [TJ830134] | < 1 µg/mL
Cc1ccn2nc(C)c(C(=O)NCc3ccc(C(C)(C)C)cc3)c2c1 [TJ830135, N-(4-(tert-butyl)benzyl)-2,5-dimethylpyrazolo [1,5-a] pyridine-3-carboxamide] | < 1 µg/mL
Cc1ccn2nc(C)c(C(=O)NCc3ccc(N(C)C)cc3)c2c1 [TJ830136, N-(4-(dimethylamino)benzyl)-2,5-dimethylpyrazolo [1,5-a] pyridine-3-carboxamide] | < 1 µg/mL
COc1ccc(C2CCN(c3ccc(CNC(=O)c4c(C)nn5ccc(C)cc45)cc3)CC2)cc1 [TJ830140, N-(4-(4-(4-methoxyphenyl)piperidine-1-yl)benzyl)-2,5-dimethyl-pyrazolo [1,5-a] pyridine-3-carboxamide] | < 1 µg/mL
Cc1ccn2nc(C)c(C(=O)NCc3ccc(N4CCC(c5ccc(F)cc5)CC4)cc3)c2c1 [TJ830141, N-(4-(4-(4-fluorophenyl)piperidine-1-yl)benzyl)-2,5-dimethyl-pyrazolo [1,5-a] pyridine-3-carboxamide] | < 1 µg/mL
Cc1ccn2nc(C)c(C(=O)NCc3ccc(N4CCCCC4)cc3)c2c1 [TJ830146, 2,5-dimethyl-N-(4-(piperidine-1-yl)benzyl) pyrazolo [1,5-a] pyridine-3-carboxamide] | < 1 µg/mL
Cc1ccn2nc(C)c(C(=O)NCc3ccc(Oc4ccc(F)cc4)cc3)c2c1 [TJ830147, N-(4-(4-fluorophenoxy)benzyl)-2,5-dimethylpyrazolo [1,5-a] pyridine-3-carboxamide] | < 1 µg/mL
Cc1ccn2nc(C)c(C(=O)NCc3ccc(N4CCC(C(F)(F)F)CC4)cc3)c2c1 [TJ830149, 2,5-dimethyl-N-(4-(4-(trifluoromethyl)piperidine-1-yl)benzyl) pyrazolo [1,5-a] pyridine-3-carboxamide] | < 1 µg/mL
